Reference: patent publication US9593122B2, “Substituted pyrazolylpyrazole derivative and use of same as herbicide” (KYOYU AGRI CO., LTD., priority 2013, dated 2017)

Columns and labels:
Assay type in all cases: in vivo
Echinochloa crus-galli = assay: Paddy herbicidal activity test; conditions: irrigated paddy pot, treated at 3.5 leaf stage of Echinochloa crus-galli, 30 days
Summary of the method: (§1)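 Flooded paddy-soil pots (3 cm water) were sown with Echinochloa, Monochoria and Scirpus, and rice at the 2.0-leaf stage was transplanted. Diluted wettable powder was dripped in per are at weed 3.5-leaf stage. After 30 days in a greenhouse (~30 °C), growth inhibition versus untreated plants was scored on an 11-level scale.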

Monochoria vaginalis = assay: Paddy herbicidal activity test; conditions: irrigated paddy pot, 30 days
Summary of the method: as §1

Scirpus juncoides = assay: Paddy herbicidal activity test; conditions: irrigated paddy pot, 30 days
Summary of the method: as §1

Rice plants = assay: Paddy herbicidal activity test, phytotoxicity to transplanted rice; conditions: rice transplanted at 2.0 leaf stage, 30 days
Method: Rice paddy soil was filled into a 1/10000 are pot followed by the addition of suitable amounts of water and chemical fertilizer, kneading, seeding with Echinochloa crus-galli, Monochoria vaginalis and Scirpus juncoides and maintaining in an irrigated state at a water depth of 3 cm.
Wettable powder of Target Compound (I) shown in Table 1 prepared in compliance with the preparation examples were diluted with a suitable amount of water, rice plants in the 2.0 leaf stage were transplanted during 3.5 leaf stage of Echinochloa crus-galli, and treated by dropping in chemical in the prescribed amount per are using a pipette.
(§2) After treating for 30 days in a glass greenhouse at an average atmospheric temperature of 30° C., the herbicidal efficacy thereof was investigated.
Evaluation of herbicidal efficacy was carried out by comparing growth inhibition rate (%) with an untreated group, while evaluation of phytotoxicity was carried out by comparing growth inhibition rate (%) with the state of a complete eradication group, and were evaluated at 11 levels indicated below.

Amaranthus retroflexus [1] = assay: Farming soil treatment test; conditions: soil surface spray prior to weed growth, 30 days
Method: (§3) Field soil was filled into a 1/6000 are pot followed by seeding with Digitaria ciliaris, Chenopodium album and Amaranthus retroflexus and covering with soil.
(§4) Wettable powder of compounds of formula (I) shown in Table 1 prepared in compliance with the preparation examples were diluted with water to the prescribed amount of chemical and uniformly sprayed onto each soil surface layer using 10 liters of sprayed water per are prior to weed growth following seeding.
as §2
(§5) Evaluation of herbicidal efficacy is carried out in the same manner as the above-mentioned Test Example 1.

Chenopodium album [2] = assay: Farming soil treatment test; conditions: soil surface spray prior to weed growth, 30 days
Method: as §3, §4, §2, §5

Digitaria ciliaris [3] = assay: Farming soil treatment test; conditions: soil surface spray prior to weed growth, 30 days
Method: as §3, §4, §2, §5

Amaranthus retroflexus [4] = assay: Weed foliar treatment test; conditions: foliar spray, 3 weeks
Method: (§6) Soil was filled into a 1/6000 are pot followed by seeding with Digitaria ciliaris, Chenopodium album and Amaranthus retroflexus, covering with soil, and cultivating in a glass greenhouse at an average atmospheric temperature of 25° C.
(§7) Wettable powder of Target Compound (I) shown in Table 1 prepared in compliance with the preparation examples were diluted with water to the prescribed amount of chemical and uniformly sprayed onto the weeds using 15 liters of sprayed water per are when Digitaria ciliaris had grown to the 1.0 to 2.0 leaf stage.
(§8) After treating for 3 weeks in a glass greenhouse at an average atmospheric temperature of 25° C., the herbicidal efficacy thereof was investigated.
(§9) Evaluation of herbicidal efficacy was carried out in the same manner as the above-mentioned Test Example 1.

Chenopodium album [5] = assay: Weed foliar treatment test; conditions: foliar spray, 3 weeks
Method: as §6, §7, §8, §9

Digitaria ciliaris [6] = assay: Weed foliar treatment test; conditions: foliar spray at 1.0 to 2.0 leaf stage of Digitaria ciliaris, 3 weeks
Method: as §6, §7, §8, §9

Compound	Echinochloa crus-galli herbicidal efficacy (growth inhibition level) (Echinochloa crus-galli; 1g a.i./10a)	Echinochloa crus-galli herbicidal efficacy (growth inhibition level) (Echinochloa crus-galli; 5g a.i./10a)	Monochoria vaginalis herbicidal efficacy (growth inhibition level) (Monochoria vaginalis; 1g a.i./10a)	Monochoria vaginalis herbicidal efficacy (growth inhibition level) (Monochoria vaginalis; 5g a.i./10a)	Scirpus juncoides herbicidal efficacy (growth inhibition level) (Scirpus juncoides; 1g a.i./10a)	Scirpus juncoides herbicidal efficacy (growth inhibition level) (Scirpus juncoides; 5g a.i./10a)	Rice plants phytotoxicity (growth inhibition level) (Rice plants; 1g a.i./10a)	Rice plants phytotoxicity (growth inhibition level) (Rice plants; 5g a.i./10a)	Amaranthus retroflexus herbicidal efficacy (growth inhibition level) (Amaranthus retroflexus [1]; 5g a.i./10a)	Amaranthus retroflexus herbicidal efficacy (growth inhibition level) (Amaranthus retroflexus [1]; 10g a.i./10a)	Chenopodium album herbicidal efficacy (growth inhibition level) (Chenopodium album [2]; 5g a.i./10a)	Chenopodium album herbicidal efficacy (growth inhibition level) (Chenopodium album [2]; 10g a.i./10a)	Digitaria ciliaris herbicidal efficacy (growth inhibition level) (Digitaria ciliaris [3]; 5g a.i./10a)	Digitaria ciliaris herbicidal efficacy (growth inhibition level) (Digitaria ciliaris [3]; 10g a.i./10a)	Amaranthus retroflexus herbicidal efficacy (growth inhibition level) (Amaranthus retroflexus [4]; 5g a.i./10a)	Amaranthus retroflexus herbicidal efficacy (growth inhibition level) (Amaranthus retroflexus [4]; 10g a.i./10a)	Chenopodium album herbicidal efficacy (growth inhibition level) (Chenopodium album [5]; 5g a.i./10a)	Chenopodium album herbicidal efficacy (growth inhibition level) (Chenopodium album [5]; 10g a.i./10a)	Digitaria ciliaris herbicidal efficacy (growth inhibition level) (Digitaria ciliaris [6]; 5g a.i./10a)	Digitaria ciliaris herbicidal efficacy (growth inhibition level) (Digitaria ciliaris [6]; 10g a.i./10a)
C=CCNc1c(C#N)cnn1-c1nn2c(c1Cl)CCCC2 [Control agent 4.59, reference compound]	2 (2: 20% to less than 30%)	5 (5: 50% to less than 60%)	2 (2: 20% to less than 30%)	4 (4: 40% to less than 50%)	2 (2: 20% to less than 30%)	4 (4: 40% to less than 50%)	1 (1: 10% to less than 20%)	2 (2: 20% to less than 30%)	5 (5: 50% to less than 60%)	6 (6: 60% to less than 70%)	5 (5: 50% to less than 60%)	6 (6: 60% to less than 70%)	5 (5: 50% to less than 60%)	6 (6: 60% to less than 70%)	6 (6: 60% to less than 70%)	7 (7: 70% to less than 80%)	6 (6: 60% to less than 70%)	7 (7: 70% to less than 80%)	4 (4: 40% to less than 50%)	6 (6: 60% to less than 70%)
C#CCNc1c(C#N)cnn1-c1nn2c(c1Cl)CCCC2 [Control agent 4.85, 4.156, reference compound]	2 (2: 20% to less than 30%)	3 (3: 30% to less than 40%)	1 (1: 10% to less than 20%)	3 (3: 30% to less than 40%)	0 (0 (exponent): 0% to less than 10% (growth inhibition rate))	1 (1: 10% to less than 20%)	2 (2: 20% to less than 30%)	2 (2: 20% to less than 30%)	3 (3: 30% to less than 40%)	6 (6: 60% to less than 70%)	4 (4: 40% to less than 50%)	5 (5: 50% to less than 60%)	3 (3: 30% to less than 40%)	4 (4: 40% to less than 50%)	4 (4: 40% to less than 50%)	6 (6: 60% to less than 70%)	5 (5: 50% to less than 60%)	6 (6: 60% to less than 70%)	3 (3: 30% to less than 40%)	5 (5: 50% to less than 60%)
C#CCN(C(=O)C(F)(F)F)c1c(C#N)cnn1-c1nn2c(c1Cl)CCCC2 [Control agent 4.239, reference compound]	3 (3: 30% to less than 40%)	5 (5: 50% to less than 60%)	1 (1: 10% to less than 20%)	2 (2: 20% to less than 30%)	0 (0 (exponent): 0% to less than 10% (growth inhibition rate))	1 (1: 10% to less than 20%)	0 (0 (exponent): 0% to less than 10% (growth inhibition rate))	1 (1: 10% to less than 20%)	3 (3: 30% to less than 40%)	5 (5: 50% to less than 60%)	2 (2: 20% to less than 30%)	3 (3: 30% to less than 40%)	4 (4: 40% to less than 50%)	5 (5: 50% to less than 60%)	4 (4: 40% to less than 50%)	6 (6: 60% to less than 70%)	3 (3: 30% to less than 40%)	4 (4: 40% to less than 50%)	3 (3: 30% to less than 40%)	5 (5: 50% to less than 60%)
CC=CCN(C(=O)C(F)(F)F)c1c(C#N)cnn1-c1nn2c(c1Cl)CCCC2 (mixture of isomers) [Compound 24]	9 (9: 90% to less than 100%)	10 (10: 100%)	8 (8: 80% to less than 90%)	9 (9: 90% to less than 100%)	8 (8: 80% to less than 90%)	9 (9: 90% to less than 100%)			10 (10: 100%)	10 (10: 100%)	10 (10: 100%)	10 (10: 100%)	10 (10: 100%)	10 (10: 100%)	10 (10: 100%)	10 (10: 100%)	10 (10: 100%)	10 (10: 100%)	10 (10: 100%)	10 (10: 100%)
